Test results as given in ChEMBL document CHEMBL2074374, “The nuclear receptor PXR is a lithocholic acid sensor that protects against liver toxicity” (Proc Natl Acad Sci U S A, 2001).

Molecular target: T1, Solute carrier organic anion transporter family member 1A4 (Mus musculus, UniProt Q9EP96)
T1 sequence (Q9EP96 whole entry): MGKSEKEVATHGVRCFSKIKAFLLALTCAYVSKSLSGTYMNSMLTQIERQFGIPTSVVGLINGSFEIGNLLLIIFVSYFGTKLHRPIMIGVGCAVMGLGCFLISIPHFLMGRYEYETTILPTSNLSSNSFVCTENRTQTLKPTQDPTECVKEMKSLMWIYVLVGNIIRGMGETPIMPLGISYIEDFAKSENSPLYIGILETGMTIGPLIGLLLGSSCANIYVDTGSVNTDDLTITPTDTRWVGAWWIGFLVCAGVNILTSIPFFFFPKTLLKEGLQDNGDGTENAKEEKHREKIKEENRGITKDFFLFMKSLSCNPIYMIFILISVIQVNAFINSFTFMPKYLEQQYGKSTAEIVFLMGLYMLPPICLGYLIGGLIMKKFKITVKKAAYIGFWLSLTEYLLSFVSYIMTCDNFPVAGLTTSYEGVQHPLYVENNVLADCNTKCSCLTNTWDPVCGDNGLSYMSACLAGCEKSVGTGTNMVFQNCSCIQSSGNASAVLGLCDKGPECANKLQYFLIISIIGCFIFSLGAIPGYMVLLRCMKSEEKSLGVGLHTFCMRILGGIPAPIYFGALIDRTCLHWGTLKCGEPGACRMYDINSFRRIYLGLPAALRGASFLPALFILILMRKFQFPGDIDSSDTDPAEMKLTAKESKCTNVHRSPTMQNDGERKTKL
Experiment: TP_TRANSPORTER: Northern blot in vivo, liver of PXR+/+ mouse
Assay type: functional, organism-based

Row | SMILES | Activity
1 | C[C@H](CCC(=O)O)[C@H]1CC[C@H]2[C@@H]3CC[C@@H]4C[C@H](O)CC[C@]4(C)[C@H]3CC[C@]12C [LITHOCHOLIC ACID] | inducer [+]
2 | CC(=O)[C@H]1[C@H](C#N)C[C@H]2[C@@H]3CC=C4C[C@@H](O)CC[C@]4(C)[C@H]3CC[C@@]21C [PREGNENOLONE CARBONITRILE] | inducer [+]
